≈ marks a conversion by molar mass, not a printed value. Counter-ions that a name gives are not always drawn.
Columns and labels:
Vero-E6 cells = experiment: Cytotoxicity (MTT / CellTiter-Glo cell viability) in Vero-E6 cells; assay type: cell-based, African green monkey; conditions: at MNCC, 48 h exposure, normalized to untreated control, mean 2x
From the text: (§1) An 80% viability threshold was established for selecting the compounds for further analysis.

Calu-3 cells = experiment: Cytotoxicity (MTT / CellTiter-Glo cell viability) in Calu-3 cells; assay type: cell-based, human; conditions: at MNCC, 48 h exposure, normalized to untreated control, mean 2x
From the text: as §1

Vero-E6 and Calu-3 cells = experiment: Maximum non-cytotoxic concentration (MNCC) determination; assay type: cell-based; conditions: 48 h
From the text: as §1

[1] = Cytotoxicity (MTT / CellTiter-Glo cell viability) in Vero-E6 cells; assay type: cell-based, African green monkey; conditions: African green monkey, Vero-E6 cells, at MNCC, 48 h exposure, normalized to untreated control; mean 2x
From the text: as §1

[2] = Cytotoxicity (MTT / CellTiter-Glo cell viability) in Calu-3 cells; assay type: cell-based, human; conditions: human, Calu-3 cells, at MNCC, 48 h exposure, normalized to untreated control; mean 2x
From the text: as §1

SARS-CoV-2 = test system: SARS-CoV-2; set-up: method as in Gendrot et al., 2020c; conditions: other studies; ref Gendrot et al., 2020c; cited from earlier work
[3] = doses commonly administered in human treatments; ref Byakika-Kibwika et al., 2012 (ASi); Nicol et al., 2020 (CQ, HCQ); Gonzalez Canga et al., 2008 (IVM); Bhatia et al., 1986 (PQ); cited from earlier work
[4] = CC50 determination in Vero E6 cells; conditions: African green monkey
From the text: (§2) DMSO was used as a negative control. To calculate the IC50 and CC50, a 4-parameter nonlinear regression sigmoidal concentration-response function was undertaken using the Prism 10 software package (GraphPad, Boston, MA, USA).

Vero E6 cells = experiment: CC50 determination in Vero E6 cells; conditions: Vero E6
From the text: as §2

[5] = CC50 (Figure 4 curve), Vero-E6, sigmoidal 4PL fit

Compound | % viability Vero E6 (Vero-E6 cells) | % viability Calu-3 (Calu-3 cells) | MNCC Concentration (Vero-E6 and Calu-3 cells) | viability at 48 h [1] | viability at 48 h [2] | also measured
Ferroquine [Ferroquine (FQ)] | 75% | 63% | 5 µM |  |  | % viability Vero E6 (Vero-E6 cells; listed as FQ): < 80%
CCO[C@H]1O[C@@H]2O[C@@]3(C)CC[C@H]4[C@H](C)CC[C@@H]([C@H]1C)[C@@]24OO3 [Arteether (AE), Arteether] |  |  | 125 µM | 104% | 97% | 
C=C[C@H]1C[N@@]2CC[C@H]1C[C@H]2[C@H](O)c1ccnc2ccc(OC)cc12 [Quinine Sulfate (QN), Quinine Sulfate] | 74% |  | 5 µM | < 80% | 90% | 
CCN(CC)CCCC(C)Nc1ccnc2cc(Cl)ccc12 (stereo not shown) [Chloroquine diphosphate (CQ), Chloroquine diphosphate] |  |  | 5 µM | 103% | 105% | EC50 (SARS-CoV-2): 2.1 µM; EC90 (SARS-CoV-2): 3.8 µM; Cmax (maximum plasma concentration) [3]: 2700 ng/mL; CC50 at 72 h ([4]; CC50% in µg/mL, Vero E6): 17 µg/mL; CC50 at 72 h ([4]; CC50%, Vero E6): 53.2 µM; CC50 at 72 h [4, 5]: 57.1 µM
CCc1nc(N)nc(N)c1-c1ccc(Cl)cc1 [Pyrimethamina (PYR), Pyrimethamina] |  |  | 125 µM | 94% | 92% | 
CCN(CCO)CCCC(C)Nc1ccnc2cc(Cl)ccc12 (stereo not shown) [Hydroxychloroquine Minsa (HCQ-m), Hydroxychloroquine] | 72% | 84% |  |  |  | % viability Vero E6 (Vero-E6 cells; listed as HCQ-m): < 80%
CN(C)c1ccc2nc3ccc(=[N+](C)C)cc-3sc2c1 [Methylene Blue Injection (MBi), Methylene Blue] |  |  | 5 µM | 84% | 89% | 
CCN(CCO)CCCC(C)Nc1ccnc2cc(Cl)ccc12 (stereo not shown) [Hydroxychloroquine sulfate (HCQ), Hydroxychloroquine sulfate] | 47% | 64% |  |  | < 80% | % viability Vero E6 (Vero-E6 cells; listed as HCQ sulfate): < 80%; Cmax (maximum plasma concentration) [3]: 130 ng/mL; CC50 at 72 h ([4]; CC50% in µg/mL, Vero E6): 23.2 µg/mL; CC50 at 72 h ([4]; CC50%, Vero E6): 72.1 µM; CC50 at 72 h [4, 5]: 72.1 µM
O=C(Nc1cccc(C2=NCCN2)c1)Nc1cccc(C2=NCCN2)c1 [Imidocarb (IMI), Imidocarb] |  |  |  | 92% | 106% | 
C[C@H]1[C@H](N2CCS(=O)(=O)CC2)O[C@@H]2O[C@@]3(C)CC[C@H]4[C@H](C)CC[C@@H]1[C@@]24OO3 [Artemisone (ASO), Artemisone] |  |  | 125 µM | 92% | 93% | 
C[C@H]1[C@@H](OCc2ccc(C(=O)O)cc2)O[C@@H]2O[C@@]3(C)CC[C@H]4[C@H](C)CC[C@@H]1[C@@]24OO3 [Artelinic Acid (AA), Artelinic Acid] | 100% | 92% | 30 µM |  |  | 
CCN(CC)Cc1cc(Nc2ccnc3cc(Cl)ccc23)ccc1O [Amodiaquine (AQ), Amodiaquine] |  |  | 20 µM | 84% | 82% | 
Ivermectin [Ivermectin Liquida (IVM-li)] | 85% | 87% | 30 µM |  |  | 
COc1c(C)c2c(c(O)c1C/C=C(\C)CCC(=O)O)C(=O)OC2 [Mycophenolic acid (MYC), Mycophenolic acid] |  |  | 5 µM | 107% | 109% | 
CN(C)C(=O)COC(=O)Cc1ccc(OC(=O)c2ccc(NC(=N)N)cc2)cc1 [Camostat mesylate (CAM), Camostat mesylate] |  |  | 50 µM | 118% | 112% | 
CCCCN(CCCC)CC(O)c1cc(Cl)cc2c1-c1ccc(Cl)cc1/C2=C/c1ccc(Cl)cc1 (stereo not shown) [Lumefantrine (LUM), Lumefantrine] |  |  | 250 µM | 86% | 86% | 
COc1ccc2nc3cc(Cl)ccc3c(Nc3cc(CN4CCCC4)c(O)c(CN4CCCC4)c3)c2n1 [Pyranoridine (PNO), Pyranoridine] | 91% | 78% | 5 µM |  |  | % viability Calu-3 (Calu-3 cells; listed as PNO): < 80%
CN1CCN(CCCN2c3ccccc3Sc3ccc(Cl)cc32)CC1 [Prochlorperazine (PCPZ), Prochlorperazine] |  | 77% | 30 µM | 80% | < 80% | 
OC(c1cc(C(F)(F)F)nc2c(C(F)(F)F)cccc12)C1CCCCN1 (stereo not shown) [Mefloquine (MQ), Mefloquine] |  |  | 30 µM | 105% | 82% | 
C[C@H]1[C@H](OC(=O)CCC(=O)O)O[C@@H]2O[C@@]3(C)CC[C@H]4[C@H](C)CC[C@@H]1[C@@]24OO3 [Artesunate injection (ASi), Artesunate] | 81% | 82% | 50 µM |  |  | Cmax (maximum plasma concentration) [3]: 3300 ng/mL; CC50 at 72 h ([4]; CC50% in µg/mL, Vero E6): 27 µg/mL; CC50 at 72 h ([4]; CC50%, Vero E6): 70.3 µM; MNCC Concentration (Vero-E6 and Calu-3 cells; listed as ASi): 50 µM
CC[C@H](C)[C@H]1O[C@]2(CC[C@@H]1C)C[C@@H]1C[C@@H](C/C=C(\C)[C@@H](O[C@H]3C[C@H](OC)[C@@H](O[C@H]4C[C@H](OC)[C@@H](O)[C@H](C)O4)[C@H](C)O3)[C@@H](C)/C=C/C=C3\CO[C@@H]4[C@H](O)C(C)=C[C@@H](C(=O)O1)[C@]34O)O2 [Ivermectin (IVM), Ivermectin] | 93% | 87% | 8 µM |  |  | Cmax (maximum plasma concentration) [3]: 50 ng/mL; CC50 (Vero E6 cells): 74 µM; CC50% (Vero E6 cells): 64.8 µg/mL (≈ 74 µM)
Ivermectin [Ivermectin Farmacia (IVM-f)] | 101% | 67% | 75 µM |  |  | % viability Calu-3 (Calu-3 cells; listed as IVM-f): < 80%
CC[C@H]1OC(=O)[C@H](C)[C@@H](O[C@H]2C[C@@](C)(OC)[C@@H](O)[C@H](C)O2)[C@H](C)[C@@H](O[C@@H]2O[C@H](C)C[C@H](N(C)C)[C@H]2O)[C@](C)(O)C[C@@H](C)CN(C)[C@H](C)[C@@H](O)[C@]1(C)O [Azithromycin dehydrate (AZH), Azithromycin dehydrate] |  |  | 30 µM | 92% | 87% | 
C[C@H]1[C@H](OC(=O)CCC(=O)O)O[C@@H]2O[C@@]3(C)CC[C@H]4[C@H](C)CC[C@@H]1[C@@]24OO3 [Artesunic acid (AS), Artesunic acid] | 74% | 74% | 125 µM | < 80% | < 80% | 
COc1cc(NC(C)CCCN)c2ncccc2c1 (stereo not shown) [Primaquine Phosphate (PQ), Primaquine Phosphate] |  |  | 15 µM | 106% | 87% | Cmax (maximum plasma concentration) [3]: 50 ng/mL; CC50 at 72 h ([4]; CC50% in µg/mL, Vero E6): 5.5 µg/mL; CC50 at 72 h ([4]; CC50%, Vero E6): 21.2 µM; CC50 at 72 h [4, 5]: 21.2 µM
NC(=O)c1ncn([C@@H]2O[C@H](CO)[C@@H](O)[C@H]2O)n1 [Ribavirin (RIB), Ribavirin] |  |  | 250 µM | 104% | 91% | 

Source: publication PMC12175177 (Frontiers in Pharmacology, 2025)
